Data: PMC9030254, “Target Hopping from Protein Kinases to PXR: Identification of Small-Molecule Protein Kinase Inhibitors as Selective Modulators of Pregnane X Receptor from TüKIC Library” (Cells, 2022)

Experiments:
PXR(S208W/S247W/C284W) = target: T1, PXR(S208W/S247W/C284W) (Homo sapiens, UniProt O75469, C284W/S208W/S247W); assay: LBP-filled PXR mutant CYP3A4 reporter assay; type: cell-based; details: HepG2, 10 µM, 24 h
T1 construct: expressed in transfected cells; host or cells: HepG2
Experimental: For testing nuclear receptor selectivity and LBP-filled PXR mutant activation, transient batch transfection was conducted as above, but with HepG2 cells and the following plasmids, with amounts per well of 0.23–0.27 µg pGL4-CYP3A4(-7830Δ7208-364) or pGL3(DR3)3Tk (as reporter for VDR), 0.01 µg pMetLuc2control, and 0.03 µg either CAR1, CAR3, VDR, or PXR(S208W/S247W/C284W) expression plasmids. In addition, 0.03 µg RXRα expression plasmid was added to CAR3 transfections. Metridia luciferase activity was measured from 10 µL of medium supernatant after adding 100 µL Renilla luciferase assay solution.
Figure 5 PXR binding of phenylaminobenzosuberones is indicated by cellular PXR LBD assembly assay and inhibition of LBP-filled PXR mutant (A) Novel compounds induce PXR LBD assembly. […] (B) Effects of novel compounds on LBP-filled PXR mutant. HepG2 cells were transiently transfected with CYP3A4 reporter and expression plasmid encoding PXR(S208W/S247W/C284W) and treated as described above. […] Statistically significant differences are illustrated with asterisks. ** p ˂ 0.01, compared to respective treatments with DMSO analyzed by repeated measures one-way ANOVA with Dunnett’s multiple comparisons test.

GRK6 = target: T2, GRK6 (Homo sapiens, UniProt P43250); assay: Kinase profiling; type: biochemical
T2 construct: purchased ProQinase (Freiburg, Germany)
T2 sequence (P43250 whole entry): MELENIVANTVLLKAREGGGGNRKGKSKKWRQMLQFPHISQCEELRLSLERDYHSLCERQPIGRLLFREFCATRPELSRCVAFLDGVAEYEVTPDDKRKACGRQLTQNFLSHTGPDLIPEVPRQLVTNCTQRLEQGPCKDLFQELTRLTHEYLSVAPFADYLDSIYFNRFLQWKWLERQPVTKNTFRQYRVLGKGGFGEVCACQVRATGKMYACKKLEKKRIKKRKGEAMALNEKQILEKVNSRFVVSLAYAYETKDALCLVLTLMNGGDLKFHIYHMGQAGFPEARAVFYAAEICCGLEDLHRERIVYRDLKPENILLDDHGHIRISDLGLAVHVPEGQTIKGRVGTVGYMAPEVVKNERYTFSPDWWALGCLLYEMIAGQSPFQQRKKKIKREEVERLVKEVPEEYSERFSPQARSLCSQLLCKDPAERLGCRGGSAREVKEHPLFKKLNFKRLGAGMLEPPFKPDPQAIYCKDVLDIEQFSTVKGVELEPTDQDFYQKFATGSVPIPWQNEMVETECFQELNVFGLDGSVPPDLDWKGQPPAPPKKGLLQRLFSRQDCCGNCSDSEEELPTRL
Experimental: (§1) The analysis was performed by ProQinase (Freiburg, Germany).

JAK2 = target: T3, JAK2 (Homo sapiens, UniProt O60674); assay: Kinase profiling; type: biochemical
T3 construct: purchased ProQinase (Freiburg, Germany)
T3 sequence (O60674 whole entry): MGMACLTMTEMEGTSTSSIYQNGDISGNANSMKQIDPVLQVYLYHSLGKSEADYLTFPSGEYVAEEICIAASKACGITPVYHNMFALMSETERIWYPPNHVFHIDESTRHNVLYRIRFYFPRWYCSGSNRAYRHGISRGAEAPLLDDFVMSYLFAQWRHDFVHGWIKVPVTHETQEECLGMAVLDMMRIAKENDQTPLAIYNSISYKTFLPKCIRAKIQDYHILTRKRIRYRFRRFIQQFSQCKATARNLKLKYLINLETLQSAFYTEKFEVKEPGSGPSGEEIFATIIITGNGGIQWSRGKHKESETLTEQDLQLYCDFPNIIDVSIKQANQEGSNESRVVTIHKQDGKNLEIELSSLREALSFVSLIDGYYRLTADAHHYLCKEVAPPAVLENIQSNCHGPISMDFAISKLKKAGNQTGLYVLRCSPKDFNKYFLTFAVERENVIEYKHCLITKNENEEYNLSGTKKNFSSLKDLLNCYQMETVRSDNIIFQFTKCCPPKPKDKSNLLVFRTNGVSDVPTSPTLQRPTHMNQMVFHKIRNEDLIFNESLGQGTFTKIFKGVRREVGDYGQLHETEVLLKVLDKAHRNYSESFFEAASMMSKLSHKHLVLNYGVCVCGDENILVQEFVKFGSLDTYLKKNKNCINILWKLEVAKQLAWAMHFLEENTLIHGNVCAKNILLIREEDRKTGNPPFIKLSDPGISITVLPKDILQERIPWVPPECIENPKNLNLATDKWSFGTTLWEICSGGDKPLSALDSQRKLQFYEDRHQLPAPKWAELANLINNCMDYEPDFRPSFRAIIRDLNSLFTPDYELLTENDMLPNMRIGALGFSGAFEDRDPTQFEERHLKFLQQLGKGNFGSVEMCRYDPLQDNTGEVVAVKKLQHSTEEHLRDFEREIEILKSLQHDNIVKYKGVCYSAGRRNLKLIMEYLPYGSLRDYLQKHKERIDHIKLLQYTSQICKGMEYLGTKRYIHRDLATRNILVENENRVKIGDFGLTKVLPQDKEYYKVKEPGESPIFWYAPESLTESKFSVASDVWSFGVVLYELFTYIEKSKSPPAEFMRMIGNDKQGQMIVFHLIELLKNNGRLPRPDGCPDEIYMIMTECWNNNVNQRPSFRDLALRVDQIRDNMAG
Experimental: as §1

LYN = target: T4, LYN (Homo sapiens, UniProt P07948); assay: Kinase profiling; type: biochemical
T4 construct: purchased ProQinase (Freiburg, Germany)
T4 sequence (P07948 whole entry): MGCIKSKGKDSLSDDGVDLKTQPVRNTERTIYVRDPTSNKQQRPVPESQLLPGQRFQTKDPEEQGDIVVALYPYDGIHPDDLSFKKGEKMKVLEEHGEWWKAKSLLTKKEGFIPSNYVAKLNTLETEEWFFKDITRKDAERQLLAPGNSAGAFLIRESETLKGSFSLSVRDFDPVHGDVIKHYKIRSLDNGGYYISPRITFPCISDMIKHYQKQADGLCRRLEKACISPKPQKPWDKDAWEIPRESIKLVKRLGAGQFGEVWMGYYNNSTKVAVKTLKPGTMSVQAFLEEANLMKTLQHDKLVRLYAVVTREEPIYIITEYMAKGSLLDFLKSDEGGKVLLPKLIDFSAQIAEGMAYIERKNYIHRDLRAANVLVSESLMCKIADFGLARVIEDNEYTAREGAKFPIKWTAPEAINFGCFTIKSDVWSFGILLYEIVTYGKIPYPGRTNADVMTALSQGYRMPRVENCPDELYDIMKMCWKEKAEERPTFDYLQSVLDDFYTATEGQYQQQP
Experimental: as §1

MEK1 = target: T5, MEK1 (Homo sapiens, UniProt Q02750); assay: Kinase profiling; type: biochemical
T5 construct: purchased ProQinase (Freiburg, Germany)
T5 sequence (Q02750 whole entry): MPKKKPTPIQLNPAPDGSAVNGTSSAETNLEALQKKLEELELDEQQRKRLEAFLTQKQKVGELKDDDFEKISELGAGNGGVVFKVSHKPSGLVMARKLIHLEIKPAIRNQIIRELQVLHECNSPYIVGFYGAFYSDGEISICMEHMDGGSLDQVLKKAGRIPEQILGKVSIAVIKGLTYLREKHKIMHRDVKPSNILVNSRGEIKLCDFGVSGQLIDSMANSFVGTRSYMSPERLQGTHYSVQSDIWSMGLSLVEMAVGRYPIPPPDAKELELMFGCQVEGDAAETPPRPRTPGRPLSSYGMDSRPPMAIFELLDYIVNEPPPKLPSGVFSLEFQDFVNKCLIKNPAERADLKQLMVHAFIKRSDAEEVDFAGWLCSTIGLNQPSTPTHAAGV
Experimental: as §1

MEKK2 = target: T6, MEKK2 (Homo sapiens, UniProt Q9Y2U5); assay: Kinase profiling; type: biochemical
T6 construct: purchased ProQinase (Freiburg, Germany)
T6 sequence (Q9Y2U5 1-619): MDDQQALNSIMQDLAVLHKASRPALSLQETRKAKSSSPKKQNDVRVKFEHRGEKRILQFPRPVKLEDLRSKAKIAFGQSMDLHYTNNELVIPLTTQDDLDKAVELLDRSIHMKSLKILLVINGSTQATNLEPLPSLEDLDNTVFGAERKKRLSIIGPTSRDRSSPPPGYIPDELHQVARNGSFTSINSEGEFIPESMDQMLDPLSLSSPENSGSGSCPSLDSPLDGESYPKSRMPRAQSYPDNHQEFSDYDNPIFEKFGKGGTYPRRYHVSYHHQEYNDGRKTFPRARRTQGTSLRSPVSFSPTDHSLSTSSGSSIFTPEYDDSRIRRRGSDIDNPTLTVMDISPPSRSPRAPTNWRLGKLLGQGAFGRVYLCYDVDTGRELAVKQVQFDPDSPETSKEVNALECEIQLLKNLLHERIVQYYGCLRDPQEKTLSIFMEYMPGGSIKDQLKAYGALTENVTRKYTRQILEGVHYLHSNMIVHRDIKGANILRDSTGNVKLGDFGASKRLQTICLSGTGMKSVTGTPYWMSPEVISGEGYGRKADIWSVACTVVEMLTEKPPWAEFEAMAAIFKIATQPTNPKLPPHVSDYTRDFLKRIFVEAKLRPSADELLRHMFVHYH
Experimental: as §1

p38gamma = target: T7, p38gamma (Homo sapiens, UniProt P53778); assay: Kinase profiling; type: biochemical
T7 construct: purchased ProQinase (Freiburg, Germany)
T7 sequence (P53778 1-367): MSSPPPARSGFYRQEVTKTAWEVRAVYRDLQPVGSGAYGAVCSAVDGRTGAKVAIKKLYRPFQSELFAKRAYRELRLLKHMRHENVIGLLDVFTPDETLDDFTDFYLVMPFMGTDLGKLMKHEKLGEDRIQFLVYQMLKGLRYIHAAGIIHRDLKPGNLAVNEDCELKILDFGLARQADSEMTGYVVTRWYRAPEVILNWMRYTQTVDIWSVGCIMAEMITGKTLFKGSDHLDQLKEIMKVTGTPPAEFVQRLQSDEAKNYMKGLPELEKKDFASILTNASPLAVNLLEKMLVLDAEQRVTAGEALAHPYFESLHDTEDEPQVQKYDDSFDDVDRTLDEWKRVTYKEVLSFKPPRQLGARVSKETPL
Experimental: as §1

PXR = target: T8, PXR (Homo sapiens, UniProt O75469); assay: Competitive radioligand binding assay ([3H]SR12813); set-up: purchased Eurofins Cerep (contract assay service); details: 7 concentrations 0.01-10 µM, duplicate; read-out: IC50, inhibition of binding of 3H-labeled SR12813 to PXR
T8 sequence (O75469 1-434): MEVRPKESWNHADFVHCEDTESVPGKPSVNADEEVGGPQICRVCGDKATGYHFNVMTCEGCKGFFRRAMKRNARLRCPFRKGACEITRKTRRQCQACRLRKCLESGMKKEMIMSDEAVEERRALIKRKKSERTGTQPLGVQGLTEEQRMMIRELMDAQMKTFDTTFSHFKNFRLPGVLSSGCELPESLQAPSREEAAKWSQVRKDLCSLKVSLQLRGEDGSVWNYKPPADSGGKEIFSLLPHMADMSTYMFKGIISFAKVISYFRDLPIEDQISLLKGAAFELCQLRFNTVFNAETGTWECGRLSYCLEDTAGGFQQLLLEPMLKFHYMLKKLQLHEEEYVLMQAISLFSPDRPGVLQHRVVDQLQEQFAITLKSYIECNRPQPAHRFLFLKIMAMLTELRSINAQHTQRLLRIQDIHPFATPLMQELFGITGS
Experimental: The assay was performed by Eurofins Cerep (Celle-Lévescault, France). […] Compound binding was calculated as % inhibition of the binding of the radioactively labeled PXR ligand [3H]SR12813 to recombinant human PXR, as described previously.

T1 sequence (O75469 whole entry S208W/S247W/C284W): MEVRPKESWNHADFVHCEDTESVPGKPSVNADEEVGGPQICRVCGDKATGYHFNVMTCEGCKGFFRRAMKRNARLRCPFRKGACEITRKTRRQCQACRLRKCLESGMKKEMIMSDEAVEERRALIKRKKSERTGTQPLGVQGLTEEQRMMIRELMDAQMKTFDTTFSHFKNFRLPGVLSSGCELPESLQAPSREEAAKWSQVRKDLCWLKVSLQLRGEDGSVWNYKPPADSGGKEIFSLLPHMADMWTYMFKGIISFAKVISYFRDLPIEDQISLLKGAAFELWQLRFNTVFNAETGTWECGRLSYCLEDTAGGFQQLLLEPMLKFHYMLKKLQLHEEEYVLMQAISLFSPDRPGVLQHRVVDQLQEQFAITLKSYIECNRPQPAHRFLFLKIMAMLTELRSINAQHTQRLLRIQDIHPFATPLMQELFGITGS

SMILES	suppression of constitutive activity of LBP-filled PXR mutant (PXR(S208W/S247W/C284W))	Residual activity (GRK6; 1.0E-05 M)	Residual activity (GRK6; 1.0E-06 M)	Residual activity (JAK2; 1.0E-05 M)	Residual activity (JAK2; 1.0E-06 M)	Residual activity (LYN; 1.0E-05 M)	Residual activity (LYN; 1.0E-06 M)	Residual activity (MEK1; 1.0E-05 M)	Residual activity (MEK1; 1.0E-06 M)	Residual activity (MEKK2; 1.0E-05 M)	Residual activity (MEKK2; 1.0E-06 M)	Residual activity (p38gamma; 1.0E-05 M)	Residual activity (p38gamma; 1.0E-06 M)	IC50 (PXR)
Cc1ccc(NC(=O)Cc2ccccc2)cc1Nc1ccc2c(c1)CCCCC2=O [Compound 73]	40%	–	–	–	–	–	–	–	–	–	–	–	–	–
O=C(Cc1ccccc1)Nc1ccc(F)c(Nc2ccc3c(c2)CCCCC3=O)c1 [Compound 100]	did not affect constitutive activity of the PXR mutant	114 % of control	117 % of control	85 % of control	94 % of control	95 % of control	96 % of control	114 % of control	112 % of control	108 % of control	108 % of control	84 % of control	93 % of control	4.5 µM
O=C(Nc1ccc(F)c(Nc2ccc3c(c2)CCCCC3=O)c1)c1cccc(F)c1 [Compound 109]	–	121 % of control	113 % of control	89 % of control	90 % of control	88 % of control	104 % of control	109 % of control	109 % of control	101 % of control	99 % of control	52 % of control	88 % of control	2.9 µM
